Legend:
[1] = target: Platelet-activating factor receptor (Homo sapiens, UniProt P25105); test: biochemical; type: tissue-based; settings: platelet; note: in other assays of this panel Not Active means under 50% inhibition at 10 µM
[2] = target: T1, Angiotensin-converting enzyme (Oryctolagus cuniculus, UniProt P12822); type: tissue-based, Lung;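 note: enzymatic inhibition of angiotensin-converting enzyme measured with FAPGG as the substrate; in other assays of this panel Not Active means under 50% inhibition at 10 µM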
T1 sequence (P12822 whole entry): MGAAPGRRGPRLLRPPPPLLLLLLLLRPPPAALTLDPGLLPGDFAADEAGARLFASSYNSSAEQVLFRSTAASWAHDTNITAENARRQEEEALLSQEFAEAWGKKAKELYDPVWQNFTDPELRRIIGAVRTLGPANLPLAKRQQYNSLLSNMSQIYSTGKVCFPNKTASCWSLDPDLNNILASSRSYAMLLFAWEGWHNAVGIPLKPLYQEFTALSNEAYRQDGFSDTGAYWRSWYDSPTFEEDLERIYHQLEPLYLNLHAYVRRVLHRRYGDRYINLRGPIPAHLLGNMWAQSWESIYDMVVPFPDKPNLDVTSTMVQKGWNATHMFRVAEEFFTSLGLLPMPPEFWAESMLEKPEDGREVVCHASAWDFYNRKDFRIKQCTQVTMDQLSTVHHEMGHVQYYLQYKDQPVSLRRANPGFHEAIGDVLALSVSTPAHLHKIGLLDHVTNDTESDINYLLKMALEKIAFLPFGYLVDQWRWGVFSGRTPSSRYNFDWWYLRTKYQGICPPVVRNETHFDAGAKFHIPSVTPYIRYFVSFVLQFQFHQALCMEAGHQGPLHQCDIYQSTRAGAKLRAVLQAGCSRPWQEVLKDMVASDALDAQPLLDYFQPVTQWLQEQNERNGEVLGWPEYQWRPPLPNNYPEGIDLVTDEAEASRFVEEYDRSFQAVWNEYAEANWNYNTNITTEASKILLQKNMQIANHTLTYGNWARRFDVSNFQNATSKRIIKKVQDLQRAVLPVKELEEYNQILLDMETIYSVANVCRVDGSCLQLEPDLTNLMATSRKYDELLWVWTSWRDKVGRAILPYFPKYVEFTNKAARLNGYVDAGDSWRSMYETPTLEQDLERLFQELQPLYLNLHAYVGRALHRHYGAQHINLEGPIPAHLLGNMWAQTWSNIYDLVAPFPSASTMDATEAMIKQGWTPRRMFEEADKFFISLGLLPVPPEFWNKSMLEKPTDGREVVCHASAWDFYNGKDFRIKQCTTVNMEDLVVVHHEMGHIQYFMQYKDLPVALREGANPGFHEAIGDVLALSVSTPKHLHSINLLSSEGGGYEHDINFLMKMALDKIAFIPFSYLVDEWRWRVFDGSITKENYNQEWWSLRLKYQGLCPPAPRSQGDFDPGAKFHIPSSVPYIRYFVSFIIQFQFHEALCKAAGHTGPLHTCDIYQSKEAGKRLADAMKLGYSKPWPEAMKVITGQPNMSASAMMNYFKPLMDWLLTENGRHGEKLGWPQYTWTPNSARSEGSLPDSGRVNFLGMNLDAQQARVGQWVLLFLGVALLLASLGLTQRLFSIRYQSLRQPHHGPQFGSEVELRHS

[3] = target: T2, Cysteinyl leukotriene receptor 1 (Homo sapiens, UniProt Q9Y271); type: cell membranes, Membrane; settings: cho-k1; note: in other assays of this panel Not Active means under 50% inhibition at 10 µM
T2 sequence (Q9Y271 whole entry): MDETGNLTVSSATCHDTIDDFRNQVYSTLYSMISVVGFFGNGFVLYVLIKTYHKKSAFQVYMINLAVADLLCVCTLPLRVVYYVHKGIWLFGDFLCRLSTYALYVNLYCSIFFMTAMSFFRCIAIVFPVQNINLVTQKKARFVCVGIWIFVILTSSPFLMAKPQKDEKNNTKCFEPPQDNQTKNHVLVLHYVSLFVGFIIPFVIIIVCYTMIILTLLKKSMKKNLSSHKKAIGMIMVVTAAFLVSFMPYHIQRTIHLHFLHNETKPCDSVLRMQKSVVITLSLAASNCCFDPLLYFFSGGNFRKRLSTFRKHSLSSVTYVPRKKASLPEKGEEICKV

[4] = target: Matrix metalloproteinase-9 (Homo sapiens, UniProt P14780); test: biochemical; type: cell-based;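 note: inhibition of isolated MMP-9 enzyme activity toward a synthetic peptide substrate, from the DrugMatrix protease screening panel; in other assays of this panel Not Active means under 50% inhibition at 10 µM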
Matrix metalloproteinase-9, sequence (P14780 whole entry): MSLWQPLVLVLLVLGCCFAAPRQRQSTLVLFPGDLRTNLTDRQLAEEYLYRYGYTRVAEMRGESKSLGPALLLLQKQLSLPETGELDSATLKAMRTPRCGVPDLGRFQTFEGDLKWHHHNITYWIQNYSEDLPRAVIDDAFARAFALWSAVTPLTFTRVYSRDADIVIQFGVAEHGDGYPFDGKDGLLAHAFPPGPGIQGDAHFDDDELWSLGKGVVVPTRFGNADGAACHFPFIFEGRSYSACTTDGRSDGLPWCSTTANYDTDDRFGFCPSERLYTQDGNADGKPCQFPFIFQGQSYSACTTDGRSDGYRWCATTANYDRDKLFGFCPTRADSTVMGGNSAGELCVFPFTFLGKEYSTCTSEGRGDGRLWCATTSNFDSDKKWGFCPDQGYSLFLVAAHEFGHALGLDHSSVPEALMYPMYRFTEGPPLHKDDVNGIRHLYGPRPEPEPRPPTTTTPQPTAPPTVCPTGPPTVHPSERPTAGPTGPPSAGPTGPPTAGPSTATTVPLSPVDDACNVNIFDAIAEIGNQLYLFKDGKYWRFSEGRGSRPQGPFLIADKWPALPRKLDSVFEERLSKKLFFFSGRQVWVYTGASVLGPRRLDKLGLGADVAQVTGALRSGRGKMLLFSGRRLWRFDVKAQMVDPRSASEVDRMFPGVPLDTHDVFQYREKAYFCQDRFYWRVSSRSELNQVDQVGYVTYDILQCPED

[5] = target: Mitogen-activated protein kinase 1 (Homo sapiens, UniProt P28482); test: DRUGMATRIX: Protein Serine/Threonine Kinase, ERK2 enzyme inhibition (substrate: Myelin Basic Protein); set-up: species or system Escherichia coli; settings: Not Active = under 50% inhibition at 10 µM
Mitogen-activated protein kinase 1, sequence (P28482 whole entry): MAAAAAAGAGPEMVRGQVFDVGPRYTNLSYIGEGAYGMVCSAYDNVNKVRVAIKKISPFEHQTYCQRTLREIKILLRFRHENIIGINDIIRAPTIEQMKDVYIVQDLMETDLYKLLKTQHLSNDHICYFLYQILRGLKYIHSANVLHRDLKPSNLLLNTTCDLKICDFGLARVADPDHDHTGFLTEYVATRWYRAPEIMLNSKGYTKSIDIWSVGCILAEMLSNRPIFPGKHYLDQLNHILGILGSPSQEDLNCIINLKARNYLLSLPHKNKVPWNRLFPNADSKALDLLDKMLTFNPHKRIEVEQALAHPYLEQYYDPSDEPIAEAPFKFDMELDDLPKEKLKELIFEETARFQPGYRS

[6] = target: T3, C-C chemokine receptor type 4 (Homo sapiens, UniProt P51679); type: cell membranes, Membrane; settings: chem-1; note: in other assays of this panel Not Active means under 50% inhibition at 10 µM
T3 sequence (P51679 whole entry): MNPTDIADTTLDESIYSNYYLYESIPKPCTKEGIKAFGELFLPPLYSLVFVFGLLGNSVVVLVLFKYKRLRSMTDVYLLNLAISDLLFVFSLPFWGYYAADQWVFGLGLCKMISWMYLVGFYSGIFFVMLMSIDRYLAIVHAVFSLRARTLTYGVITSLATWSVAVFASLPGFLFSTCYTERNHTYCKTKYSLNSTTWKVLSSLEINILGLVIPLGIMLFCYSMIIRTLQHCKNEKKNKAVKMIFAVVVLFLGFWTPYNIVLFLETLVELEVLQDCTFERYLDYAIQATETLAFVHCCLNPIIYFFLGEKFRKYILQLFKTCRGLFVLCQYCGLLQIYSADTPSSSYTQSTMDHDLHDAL

Adenosine receptor A1 = target: T4, Adenosine receptor A1 (Homo sapiens, UniProt P30542); type: cell membranes, CHO, Membrane; settings: cho
T4 sequence (P30542 whole entry): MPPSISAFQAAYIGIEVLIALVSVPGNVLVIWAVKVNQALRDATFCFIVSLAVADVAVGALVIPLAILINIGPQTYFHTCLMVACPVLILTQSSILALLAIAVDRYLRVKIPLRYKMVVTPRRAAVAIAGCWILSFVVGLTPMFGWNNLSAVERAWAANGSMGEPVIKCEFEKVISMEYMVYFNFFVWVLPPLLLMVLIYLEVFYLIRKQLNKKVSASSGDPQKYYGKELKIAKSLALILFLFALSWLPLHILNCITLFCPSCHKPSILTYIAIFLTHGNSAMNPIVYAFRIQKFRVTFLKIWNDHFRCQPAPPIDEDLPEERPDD

Platelet-activating factor receptor, sequence (P25105 whole entry): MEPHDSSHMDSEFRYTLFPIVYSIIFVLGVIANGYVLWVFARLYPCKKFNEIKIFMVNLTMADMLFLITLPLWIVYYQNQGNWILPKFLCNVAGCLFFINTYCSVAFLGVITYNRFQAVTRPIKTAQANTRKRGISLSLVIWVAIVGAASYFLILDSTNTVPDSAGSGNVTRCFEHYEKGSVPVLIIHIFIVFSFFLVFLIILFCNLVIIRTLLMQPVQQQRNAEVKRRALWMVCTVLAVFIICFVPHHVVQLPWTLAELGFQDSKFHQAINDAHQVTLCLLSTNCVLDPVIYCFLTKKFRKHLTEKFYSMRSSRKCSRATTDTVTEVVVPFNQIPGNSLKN

POLYVINYL ALCOHOL
Not Active: IC50 [1] | Ki [1] | IC50 [2] | Ki [2] | IC50 [3] | Ki [3] | IC50 [4] | Ki [4] | IC50 [5] | Ki [5] | IC50 [6] | Ki [6] | IC50 (Adenosine receptor A1) | Ki (Adenosine receptor A1)

Source: ChEMBL document CHEMBL1909046, “DrugMatrix in vitro pharmacology data”
